Assay results from US7462599B2, “Use of effectors of glutaminyl and glutamate cyclases” (Probiodrug AG, priority 2003, dated 2008).
Entries after “also recorded” stand apart in the source; their conditions may differ. Read-outs that look alike come from different tables or passages of the source. Values belong to the molecule of their own block, whether it stands above or below them. Ends that are not written are not given here.

Key:
DP IV and QC = test: Consecutive catalysis of DP IV and QC in crude pituitary homogenate with added DPIV, MALDI-TOF; format: biochemical, porcine; details: inhibitor added
Procedure: (§1) Matrix-assisted laser desorption/ionization mass spectrometry was carried out using the Hewlett-Packard G2025 LD-TOF System with a linear time of flight analyzer. […] Samples (5 μl) were mixed with equal volumes of the matrix solution. For matrix solution we used DHAP/DAHC, prepared by solving 30 mg 2′,6′-dihydroxyacetophenone (Aldrich) and 44 mg diammonium hydrogen citrate (Fluka) in 1 ml acetonitrile/0.1% TFA in water (1/1, v/v). A small volume (≈1 μl) of the matrix-analyte-mixture was transferred to a probe tip and immediately evaporated in a vacuum chamber (Hewlett-Packard G2024A sample prep accessory) to ensure rapid and homogeneous sample crystallization.

DP IV (porcine kidney) = biological target: T1, DP IV (porcine kidney) (Sus scrofa, UniProt P22411); test: DP IV cleavage of Gln3-Aβ(1-11)a, MALDI-TOF; format: biochemical
T1 construct: purified DP IV (porcine kidney); from tissue; host or cells: porcine kidney
Procedure: as §1

mammalian QC = details: Busby et al. 1987; cited from earlier work
QC [1] = biological target: T2, QC (Homo sapiens, UniProt Q16769); test: Enzyme inactivation/reactivation of human QC; format: biochemical; parameters: The cDNA of the mature QC starting with codon 38 was fused in frame with the plasmid encoded 6× histidine tag; 6x histidine tag; made in house; host or cells: Pichia pastoris X33 (pPICZαB); also E. coli M15 (pQE-31)
[2] = tested on: Glutaminyl cyclase present in the homogenate of porcine pituitary; test: Cyclization of Gln3-Aβ(3-11)a by QC in pituitary homogenate, MALDI-TOF; format: biochemical
Procedure: as §1

[3] = Solubility in aqueous solution
QC [4] = biological target: T2, QC; test: Long-term Glu1-cyclization of Aβ-derived peptides by recombinant human QC, MALDI-TOF; format: biochemical; parameters: The cDNA of the mature QC starting with codon 38 was fused in frame with the plasmid encoded 6× histidine tag; 6x histidine tag; made in house; host or cells: Pichia pastoris X33 (pPICZαB); also E. coli M15 (pQE-31); details: 5 mM benzimidazole
Description: At different times, samples were removed from the assay tube, peptides extracted using ZipTips (Millipore) according to the manufacturer's recommendations, mixed with matrix solution (1:1 v/v) and subsequently the mass spectra recorded.

QC [5] = biological target: T2, QC; test: LC/MS analysis of QC-catalyzed pyroglutamate formation; format: biochemical

T2 sequence (Q16769 29-361): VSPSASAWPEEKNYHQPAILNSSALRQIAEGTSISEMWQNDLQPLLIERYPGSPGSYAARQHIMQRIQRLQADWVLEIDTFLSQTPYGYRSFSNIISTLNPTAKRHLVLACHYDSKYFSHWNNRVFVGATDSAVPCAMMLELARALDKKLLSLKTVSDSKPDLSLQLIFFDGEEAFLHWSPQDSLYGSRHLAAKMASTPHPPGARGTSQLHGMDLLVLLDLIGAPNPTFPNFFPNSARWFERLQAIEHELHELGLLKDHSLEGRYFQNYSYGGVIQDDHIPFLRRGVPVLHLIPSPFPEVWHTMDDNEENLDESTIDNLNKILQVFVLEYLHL
T1 sequence (P22411 whole entry): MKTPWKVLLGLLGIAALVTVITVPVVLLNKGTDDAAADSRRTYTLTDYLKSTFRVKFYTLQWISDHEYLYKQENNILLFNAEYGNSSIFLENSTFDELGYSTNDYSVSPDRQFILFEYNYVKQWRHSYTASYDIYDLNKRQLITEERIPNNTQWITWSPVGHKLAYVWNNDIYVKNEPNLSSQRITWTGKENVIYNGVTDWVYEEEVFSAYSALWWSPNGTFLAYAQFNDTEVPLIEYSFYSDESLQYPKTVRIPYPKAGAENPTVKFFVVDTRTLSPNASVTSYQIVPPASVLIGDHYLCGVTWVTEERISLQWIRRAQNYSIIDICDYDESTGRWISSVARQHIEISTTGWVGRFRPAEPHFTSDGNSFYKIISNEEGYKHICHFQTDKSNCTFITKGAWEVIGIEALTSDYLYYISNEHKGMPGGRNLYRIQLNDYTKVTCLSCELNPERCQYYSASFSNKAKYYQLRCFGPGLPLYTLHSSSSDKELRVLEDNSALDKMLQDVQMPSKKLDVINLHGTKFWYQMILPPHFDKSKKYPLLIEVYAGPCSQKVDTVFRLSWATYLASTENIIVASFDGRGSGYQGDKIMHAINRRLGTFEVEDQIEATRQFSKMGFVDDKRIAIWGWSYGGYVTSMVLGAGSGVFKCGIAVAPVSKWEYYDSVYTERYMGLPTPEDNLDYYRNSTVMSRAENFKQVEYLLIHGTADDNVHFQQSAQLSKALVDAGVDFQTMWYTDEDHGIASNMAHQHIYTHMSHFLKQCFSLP

- prevention of DP IV cleavage of Gln3-Aβ(1-11)a (DP IV (porcine kidney)): completely prevented
- prevention of DP IV cleavage of Gln3-Aβ(1-11)a (DP IV (porcine kidney); listed as Val-Pyrrolidide): prevention of the cleavage
Molecule: CC(C)[C@H](N)C(=O)N1CCCC1 [Val-Pyrr, Val-Pyrrolidide]
- [pGlu3]Aβ(3-11)a formation from Gln3-Aβ(1-11)a in presence of DP IV and QC (DP IV and QC): reduction

- inhibition of human QC catalyzed substrate cyclization by chelators (QC [1]): inhibited
- inactivation of human QC after extensive dialysis (QC [1]; 5 mM inactivating agent): almost completely inactivated
Molecule: c1cnc2c(c1)ccc1cccnc12 [1,10-phenanthroline]
- inhibition of mammalian QC (mammalian QC): Inhibition of a mammalian QC was only detected
- [pGlu3]Aβ(3-11)a formation from Gln3-Aβ(1-11)a in presence of DP IV and QC (DP IV and QC): inhibition
- inhibition of formation of [pGlu3]Aβ(3-11)a from Gln3-Aβ(3-11)a [2]: inhibited; also recorded: inhibition of the formation

- solubility in aqueous solution [3]: better solubility
Molecule: QFRHDSGYE-NH2 [[Gln^3]Aβ3-11a]

- suppression of [pGlu3]Aβ(3-11)a / [pGlu3]Aβ(3-21)a formation (QC [4]): suppressed
- suppression of [pGlu3]Aβ(3-11)a / [pGlu3]Aβ(3-21)a formation (QC [4]; listed as Benzimidazole): suppressing the formation
Molecule: c1ccc2[nH]cnc2c1 [benzimidazole]

- formation of N-terminal pyroglutamate catalyzed by QC (QC [5]): transformed by QC
Molecule: [Gln^5]-substance P(5-11): substance P fragment 5-11 with N-terminal Gln^5 after cleavage of residues 1-4 (QQFFGLM; ends and bridges not checked)
